Reference: patent US20080051348A1, “TREATMENT OF INFECTIONS AND OTHER DISORDERS” (RegeneRx Biopharmaceuticals, Inc., priority 2002, published 2008)
Values after ≈ are worked out from the molar mass of the structure shown.

Key:
Format in all cases: cell-based
Staphylococcus aureus [1] = assay: Antimicrobial activity, Example 3
[2] = system: Pseudomonas aeruginosa (PA)
Protocol: (§1) Antimicrobial assays were performed to assess peptide activity against Pseudomonas aeruginosa (PA), Staphylococcus aureus ([…]), and Staphylococcus epidermidis (SE).

Staphylococcus aureus [3] = assay: Antimicrobial assay, Example 2
Protocol: as §1

[4] = system: Staphylococcus epidermidis (SE); assay: Antimicrobial assay, Example 2
Protocol: as §1

Escherichia coli = assay: Antimicrobial activity, Example 3
Pseudomonas aeruginosa = assay: Antimicrobial assay, Example 1
Protocol: The purpose of this study was to study the antimicrobial activity of peptides against common pathogens in vitro. Antimicrobial assays were performed to assess peptide activity against Pseudomonas aeruginosa. […]

- EC50 against PA [2]: 18.1 ± 1.7 µg/mL (≈ 3.65 µM)
- EC50 against Pseudomonas aeruginosa (Pseudomonas aeruginosa; in vitro): 26.5 ± 1.6 µg/mL (≈ 5.34 µM)
SMILES: CC[C@H](C)[C@H](NC(=O)[C@H](CCC(=O)O)NC(=O)[C@H](C)NC(=O)[C@H](CCSC)NC(=O)[C@H](CC(=O)O)NC(=O)[C@@H]1CCCN1C(=O)[C@H](CCCCN)NC(=O)[C@H](CC(=O)O)NC(=O)[C@H](CO)NC(C)=O)C(=O)N[C@@H](CCC(=O)O)C(=O)N[C@@H](CCCCN)C(=O)N[C@@H](Cc1ccccc1)C(=O)N[C@@H](CC(=O)O)C(=O)N[C@@H](CCCCN)C(=O)N[C@@H](CO)C(=O)N[C@@H](CCCCN)C(=O)N[C@@H](CC(C)C)C(=O)N[C@@H](CCCCN)C(=O)N[C@@H](CCCCN)C(=O)N[C@H](C(=O)N[C@@H](CCC(=O)O)C(=O)N[C@H](C(=O)N[C@@H](CCC(N)=O)C(=O)N[C@@H](CCC(=O)O)C(=O)N[C@@H](CCCCN)C(=O)N[C@@H](CC(N)=O)C(=O)N1CCC[C@H]1C(=O)N[C@@H](CC(C)C)C(=O)N1CCC[C@H]1C(=O)N[C@@H](CO)C(=O)N[C@@H](CCCCN)C(=O)N[C@@H](CCC(=O)O)C(=O)N[C@H](C(=O)N[C@H](C(=O)N[C@@H](CCC(=O)O)C(=O)N[C@@H](CCC(N)=O)C(=O)N[C@@H](CCC(=O)O)C(=O)N[C@@H](CCCCN)C(=O)N[C@@H](CCC(N)=O)C(=O)N[C@@H](C)C(=O)NCC(=O)N[C@@H](CCC(=O)O)C(=O)N[C@@H](CO)C(=O)O)[C@@H](C)CC)[C@@H](C)O)[C@@H](C)O)[C@@H](C)O [Tβ4, thymosin β4]
- concentrations showing antimicrobial activity (Staphylococcus aureus [1]): 5-20 n mol/ml
- concentrations showing increasingly dose-dependent activity (Staphylococcus aureus [1]): 50-200 n mol/ml
- effectiveness against staphylococcal strains (Staphylococcus aureus [3]): weakly effective
- effectiveness against staphylococcal strains [4]: weakly effective
- concentrations showing antimicrobial activity (Escherichia coli): 5-20 n mol/ml
- concentrations showing increasingly dose-dependent activity (Escherichia coli): 50-200 n mol/ml
- lowest dose where activity and/or protection was demonstrated (Pseudomonas aeruginosa; against Pseudomonas aeruginosa): 0.5 to 1 µg/mL
